# Results: patent US12016852B2, “Pyrrolidine glycosidase inhibitors” (Asceneuron SA, priority 2018, dated 2024)
# Molecular target: T1, Human O-GlcNAcase (His-Tagged hOGA) (Homo sapiens, UniProt O60502)
# T1 sequence (O60502 1-916): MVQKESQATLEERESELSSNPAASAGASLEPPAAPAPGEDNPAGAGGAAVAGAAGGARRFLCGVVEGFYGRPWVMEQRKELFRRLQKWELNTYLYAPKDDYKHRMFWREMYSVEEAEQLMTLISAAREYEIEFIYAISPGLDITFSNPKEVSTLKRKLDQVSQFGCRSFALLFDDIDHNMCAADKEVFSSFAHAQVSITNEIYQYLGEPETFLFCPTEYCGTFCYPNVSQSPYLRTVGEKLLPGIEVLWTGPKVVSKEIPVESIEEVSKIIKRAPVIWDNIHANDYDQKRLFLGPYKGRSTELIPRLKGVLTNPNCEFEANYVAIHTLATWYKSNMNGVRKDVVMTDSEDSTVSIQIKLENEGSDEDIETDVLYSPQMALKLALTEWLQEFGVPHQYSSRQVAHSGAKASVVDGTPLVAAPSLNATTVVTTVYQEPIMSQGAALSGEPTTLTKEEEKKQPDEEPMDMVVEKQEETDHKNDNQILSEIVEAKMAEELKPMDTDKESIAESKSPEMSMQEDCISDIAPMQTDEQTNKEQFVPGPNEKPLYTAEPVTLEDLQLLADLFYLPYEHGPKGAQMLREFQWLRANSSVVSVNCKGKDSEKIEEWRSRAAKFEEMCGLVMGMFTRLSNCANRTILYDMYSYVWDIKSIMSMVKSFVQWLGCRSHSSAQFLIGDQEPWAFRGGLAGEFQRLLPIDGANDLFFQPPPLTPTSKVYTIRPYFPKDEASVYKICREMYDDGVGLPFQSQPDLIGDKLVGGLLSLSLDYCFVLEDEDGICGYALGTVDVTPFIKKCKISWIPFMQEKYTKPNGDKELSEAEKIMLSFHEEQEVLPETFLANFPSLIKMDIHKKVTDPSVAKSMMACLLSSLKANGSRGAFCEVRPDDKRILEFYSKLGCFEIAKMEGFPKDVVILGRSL
# Test: Human O-GlcNAcase enzyme inhibition assay
# Format: biochemical
# Details: 20 nM His-Tagged hOGA, 10 μM FL-GlcNAc, McIlvaine's Buffer pH 6.5, 60 min at room temperature, fluorescence; read-out: OGA IC50
# Procedure: Example B01: Human O-GlcNAcase Enzyme Inhibition Assay
# 5 μl of the appropriate concentration of a solution of inhibitor in Mcllvaine's Buffer (pH 6.5) in 2% DMSO (for a dose response curve calculation) is added into each well of a 384-well plate (Greiner, 781900). Then, 20 nM of His-Tagged hOGA and 10 μM of FL-GlcNAc (Fluorescein mono-beta-D-(2-deoxy-2-N-acetyl) glucopyranoside; Marker Gene Technologies Inc, M1485) were added to the 384-well plate for a final volume of 20 μl. After incubation for 60 min at room temperature, the reaction was terminated by the addition of 10 μL of stop buffer (200 mM glycine, pH 10.75). The level of fluorescence (λexc 485 nm; (λemm 520 nm) was read on a PHERAstar machine. The amount of fluorescence measured was plotted against the concentration of inhibitor to produce a sigmoidal dose response curve to calculate an IC50. All individual data was corrected by subtraction of the background (Thiamet 3 uM=100% inhibition) whilst 0.5% DMSO was considered as the control value (no inhibition).
row,IC50,SMILES
1,200 to 1000 nM,"CS(=O)(=O)N1CCN(c2ccc(CN3CCCC3c3ccc4c(c3)OCCO4)cc2)CC1 (racemic) [Example 36, 1-(4-((2-(2,3-dihydrobenzo[b] [1,4]dioxin-6-yl)pyrrolidin-1-yl)methyl)phenyl)-4-(methylsulfonyl)piperazine]"
2,200 to 1000 nM,"CS(=O)(=O)c1cccc(-c2ccc(CN3CCCC3c3ccc4c(c3)OCCO4)cc2)c1 (racemic) [Example 44, 2-(2,3-dihydrobenzo[b] [1,4]dioxin-6-yl)-1-((3′-(methylsulfonyl)-[1,1′-biphenyl]-4-yl)methyl)pyrrolidine]"
3,50 to 200 nM,"c1csc(-c2ccc(CN3CCCC3c3ccc4c(c3)OCCO4)cc2)n1 (racemic) [Example 58, 2-(4-((2-(2,3-dihydrobenzo[b] [1,4]dioxin-6-yl)pyrrolidin-1-yl)methyl)phenyl)thiazole]"
4,200 to 1000 nM,"CS(=O)(=O)c1ccc(CN2CCCC2c2ccc3c(c2)OCC3)cc1 (racemic) [Example 10, 2-(2,3-dihydrobenzofuran-6-yl)-1-(4-(methylsulfonyl)benzyl)pyrrolidine]"
5,50 to 200 nM,"c1cnn(-c2ccc(CN3CCCC3c3ccc4c(c3)OCCO4)cc2)c1 (single isomer, unassigned) [Example 27, (S)-1-(4-((2-(2,3-dihydrobenzo[b] [1,4]dioxin-6-yl)pyrrolidin-1-yl)methyl)phenyl)-1 H-pyrazole or (R)-1-(4-((2-(2,3-dihydrobenzo[b] [1,4]dioxin-6-yl)pyrrolidin-1-yl)methyl)phenyl)-1H-pyrazole]"
6,1000 to 10000 nM,"Cc1nn(C)c(C)c1-c1ccc(CN2CCCC2c2ccc3c(c2)OCCO3)cc1 (racemic) [Example 55, 4-(4-((2-(2,3-dihydrobenzo[b] [1,4]dioxin-6-yl)pyrrolidin-1-yl)methyl)phenyl)-1,3,5-trimethyl-1H-pyrazole]"
7,200 to 1000 nM,"O=C1CSCCN1c1ccc(CN2CCCC2c2ccc3c(c2)OCCO3)cc1 (single isomer, unassigned) [Example 73]"
8,50 to 200 nM,"c1ncn(-c2ccc(CN3CCCC3c3ccc4c(c3)OCCO4)cc2)n1 (racemic) [Example 34, 1-(4-((2-(2,3-dihydrobenzo[b] [1,4]dioxin-6-yl)pyrrolidin-1-yl)methyl)phenyl)-1H-1,2,4-triazole]"
9,50 to 200 nM,Cn1cc(-c2ccc(CN3CCCC3c3ccc4cccnc4c3)cc2)cn1 (racemic) [Example 150]
10,200 to 1000 nM,Cc1cc(-c2ccc(CN3CCCC3c3ccc4c(c3)OCCO4)cn2)ccn1 (racemic) [Example 155]
11,< 50 nM,"Cn1cc(-c2ccc(CN3CCCC3c3ccc4c(c3)OCCO4)cc2)cn1 (single isomer, unassigned) [Example 6, (S)-4-(4-((2-(2,3-dihydrobenzo[b] [1,4]dioxin-6-yl)pyrrolidin-1-yl)methyl)phenyl)-1-methyl-1H-pyrazole or (R)-4-(4-((2-(2,3-dihydrobenzo[b] [1,4]dioxin-6-yl)pyrrolidin-1-yl)methyl)phenyl)-1-methyl-1 H-pyrazole]"
12,1000 to 10000 nM,"CS(=O)(=O)N1CCN(c2ccc(CN3CCCC3c3ccc4c(c3)OCCO4)cc2)CC1 (single isomer, unassigned) [Example 148]"
13,200 to 1000 nM,"Clc1cc(-c2cccnc2)ccc1CN1CCCC1c1ccc2c(c1)OCCO2 (racemic) [Example 31, 3-(3-chloro-4-((2-(2,3-dihydrobenzo[b] [1,4]dioxin-6-yl)pyrrolidin-1-yl)methyl)phenyl)pyridine]"
14,50 to 200 nM,"Cn1cc(-c2ccc(CN3CCCC3c3ccc4c(c3)OCC4)cn2)cn1 (racemic) [Example 12, 5-((2-(2,3-dihydrobenzofuran-6-yl)pyrrolidin-1-yl)methyl)-2-(1-methyl-1H-pyrazol-4-yl)pyridine]"
15,200 to 1000 nM,"O=C1CSCCN1c1ccc(CN2CCCC2c2ccc3c(c2)OCCO3)cc1 (racemic) [Example 67, 4-(4-((2-(2,3-dihydrobenzo[b] [1,4]dioxin-6-yl)pyrrolidin-1-yl)methyl)phenyl)thiomorpholin-3-one]"
16,50 to 200 nM,"N#Cc1cnn(-c2ccc(CN3CCCC3c3ccc4c(c3)OCCO4)cc2)c1 (racemic) [Example 52, 1-(4-((2-(2,3-dihydrobenzo[b] [1,4]dioxin-6-yl)pyrrolidin-1-yl)methyl)phenyl)-1H-pyrazole-4-carbonitrile]"
17,50 to 200 nM,"c1cnc2ccc(CN3CCCC3c3ccc4c(c3)OCCO4)cc2c1 (single isomer, unassigned) [Example 25, (S)-6-((2-(2,3-dihydrobenzo[b] [1,4]dioxin-6-yl)pyrrolidin-1-yl)methyl)quinolone or (R)-6-((2-(2,3-dihydrobenzo[b] [1,4]dioxin-6-yl)pyrrolidin-1-yl)methyl)quinolone]"
18,200 to 1000 nM,Cn1ccc(-c2ccc(CN3CCCC3c3ccc4c(c3)OCCO4)cc2)n1 (racemic) [Example 152]
19,200 to 1000 nM,Brc1cncc(Oc2ccc(CN3CCCC3c3ccc4c(c3)OCCO4)cc2)c1 (racemic) [Example 153]
20,200 to 1000 nM,Fc1cccc(Oc2ccc(CN3CCCC3c3ccc4c(c3)OCCO4)cc2)n1 (racemic) [Example 157]
21,50 to 200 nM,"CS(=O)(=O)N1CCN(c2ccc(CN3CCCC3c3ccc4c(c3)OCCO4)cc2)CC1 (single isomer, unassigned) [Example 53, (S)-1-(4-((2-(2,3-dihydrobenzo[b] [1,4]dioxin-6-yl)pyrrolidin-1-yl)methyl)phenyl)-4-(methylsulfonyl)piperazine or (R)-1-(4-((2-(2,3-dihydrobenzo[b] [1,4]dioxin-6-yl)pyrrolidin-1-yl)methyl)phenyl)-4-(methylsulfonyl)piperazine]"
22,1000 to 10000 nM,"Clc1cc(-c2ccccn2)ccc1CN1CCCC1c1ccc2c(c1)OCCO2 (racemic) [Example 43, (3-chloro-4-((2-(2,3-dihydrobenzo[b] [1,4]dioxin-6-yl)pyrrolidin-1-yl)methyl)phenyl) pyridine]"
23,1000 to 10000 nM,"O=C1CSCCN1c1ccc(CN2CCCC2c2ccc3c(c2)OCCO3)cc1 (single isomer, unassigned) [Example 74]"
24,200 to 1000 nM,"Cn1ncc2cc(CN3CCCC3c3ccc4c(c3)OCCO4)ccc21 (racemic) [Example 20, 5-((2-(2,3-dihydrobenzo[b] [1,4]dioxin-6-yl)pyrrolidin-1-yl)methyl)-1-methyl-1H-indazole]"
25,200 to 1000 nM,"Cn1cc(-c2ccc(CN3CCCC3c3ccc4c(c3)OCO4)cc2)cn1 (racemic) [Example 72, 4-(4-((2-(benzo[d] [1,3]dioxol-5-yl)pyrrolidin-1-yl)methyl)phenyl)-1-methyl-1H-pyrazole]"
26,200 to 1000 nM,"Cn1cc(-c2ccc(CN3CCCC3c3ccc4c(c3)OCCO4)nc2)cn1 (single isomer, unassigned) [Example 145]"
27,200 to 1000 nM,"Cc1cc(-c2ccncc2)ccc1CN1CCCC1c1ccc2c(c1)OCCO2 (racemic) [Example 49, 4-(4-((2-(2,3-dihydrobenzo[b] [1,4]dioxin-6-yl)pyrrolidin-1-yl)methyl)-3-methylphenyl)pyridine]"
28,50 to 200 nM,"c1ncc(-c2ccc(CN3CCCC3c3ccc4c(c3)OCCO4)cc2)cn1 (racemic) [Example 39, 5-(4-((2-(2,3-dihydrobenzo[b] [1,4]dioxin-6-yl)pyrrolidin-1-yl)methyl)phenyl)pyrimidine]"
